The text below walks through data of patent US20090253669A1, “Substituted Sulfonamide Compounds” (GRUENENTHAL GmbH, priority 2008, published 2009).

Assay [1] has as its target T1, B1R receptor of the rat (rB1R) (Rattus norvegicus, UniProt P97583).
T1 construct: host or cells: CHO K1 cells
T1 sequence (P97583 1-337): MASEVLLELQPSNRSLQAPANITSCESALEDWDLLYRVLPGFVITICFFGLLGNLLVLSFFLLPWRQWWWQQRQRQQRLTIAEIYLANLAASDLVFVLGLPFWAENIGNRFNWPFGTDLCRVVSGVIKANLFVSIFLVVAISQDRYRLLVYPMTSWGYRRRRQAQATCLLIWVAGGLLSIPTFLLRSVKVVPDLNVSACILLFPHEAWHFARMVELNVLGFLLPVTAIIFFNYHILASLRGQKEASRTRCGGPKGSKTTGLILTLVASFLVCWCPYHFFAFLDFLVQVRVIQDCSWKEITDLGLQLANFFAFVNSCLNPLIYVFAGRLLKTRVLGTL
Nature of the assay: FLIPR Ca2+ assay on rB1R-transfected CHO K1 cells, antagonistic action. In kind it is cell-based. The following applies: CHO-K1, 10 μM test substance; agonist Des-Arg9-bradykinin 100 nM; % of maximum achievable inhibition; read-out: rB1R [10 μM] % inhibition.

For assay [2], the target named is T2, human B1R receptor (hB1R) (Homo sapiens, UniProt P46663).
T2 construct: host or cells: CHO K1 cells
T2 sequence (P46663 1-353): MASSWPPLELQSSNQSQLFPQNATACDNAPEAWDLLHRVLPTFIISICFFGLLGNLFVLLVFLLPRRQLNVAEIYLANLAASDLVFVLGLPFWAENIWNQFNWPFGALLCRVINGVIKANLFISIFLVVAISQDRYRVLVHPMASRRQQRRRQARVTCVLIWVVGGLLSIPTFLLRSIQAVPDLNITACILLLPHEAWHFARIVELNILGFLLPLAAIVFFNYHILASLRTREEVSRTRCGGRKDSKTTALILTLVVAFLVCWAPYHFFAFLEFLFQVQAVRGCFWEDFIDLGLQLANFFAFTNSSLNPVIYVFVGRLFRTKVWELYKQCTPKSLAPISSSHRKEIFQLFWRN
Nature of the assay: FLIPR Ca2+ assay on hB1R-transfected CHO K1 cells, antagonistic action. In kind it is cell-based. The following applies: CHO-K1, 10 μM test substance; agonist Lys-Des-Arg9-bradykinin 0.5 nM; % of maximum achievable inhibition; read-out: hB1R [10 μM] % inhibition.

Structures are written as SMILES.

The term inhibition denotes the relative decrease from the control value, in per cent. As to `CN(CCC1CCC(Cc2ccccc2)(N2CCCC2)CC1)C(=O)COCC1CCc2ccccc2N1S(=O)(=O)c1ccc(Cl)c(Cl)c1` (stereo not drawn) [Compound 104, N-(2-(4-benzyl-4-(pyrrolidin-1-yl)cyclohexyl)ethyl)-2-((1-(3,4-dichlorophenylsulfonyl)-1,2,3,4-tetrahydroquinolin-2-yl)methoxy)-N-methylacetamide], the inhibition at 10 µM in assay [1] is 82%; in assay [2] it was 60%.
The matching figures for `CN(CCOCC(=O)NC1CCC(c2ccccc2)(N2CCCC2)CC1)S(=O)(=O)c1c(Cl)cc(Cl)cc1Cl` (stereo not drawn) [Compound 191, N-(4-phenyl-4-(pyrrolidin-1-yl)cyclohexyl)-2-(2-(2,4,6-trichloro-N-methylphenylsulfonamido)ethoxy)acetamide]: 55% and 90%.
With `COc1cc(C)c(S(=O)(=O)N2CCCC[C@H]2COCC(=O)N(C)CCC2CCC(c3ccccc3)(N3CCCC3)CC2)c(C)c1` (stereo partly drawn) [Compound 200, (S)-2-((1-(4-methoxy-2,6-dimethylphenylsulfonyl)piperidin-2-yl)methoxy)-N-methyl-N-(2-(4-phenyl-4-(pyrrolidin-1-yl)cyclohexyl)ethyl)acetamide], the inhibition at 10 µM in assay [1] was determined as 105%; in assay [2], 99%.
For the molecule `COc1cc(C)c(S(=O)(=O)N(C)CCOCC(=O)NCC2CCC(Cc3ccccc3)(N3CCOCC3)CC2)c(C)c1` (stereo not drawn) [Compound 188, N-((4-benzyl-4-morpholinocyclohexyl)methyl)-2-(2-(4-methoxy-N,2,6-trimethylphenylsulfonamido)ethoxy)acetamide], the values for the inhibition at 10 µM in assay [1] and in assay [2] were 63% and 95%, respectively.
Turning to `COc1cc(C)c(S(=O)(=O)N(C)CCOCC(=O)N2CCC(c3ccccc3)(N3CCN(C)CC3)CC2)c(C)c1` [Compound 41, 4-methoxy-N,2,6-trimethyl-N-(2-(2-(4-(4-methylpiperazin-1-yl)-4-phenylpiperidin-1-yl)-2-oxoethoxy)ethyl)benzenesulfonamide], the inhibition at 10 µM in assay [1] amounted to 101%; in assay [2], 103%.
As to `CN1CCN(C2(CCc3ccccc3)CCC(CN(C)C(=O)COCCN(C)S(=O)(=O)c3c(Cl)cc(Cl)cc3Cl)CC2)CC1` (stereo not drawn) [Compound 195, N-methyl-N-((4-(4-methylpiperazin-1-yl)-4-phenethylcyclohexyl)methyl)-2-(2-(2,4,6-trichloro-N-methylphenylsulfonamido)ethoxy)acetamide], the inhibition at 10 µM worked out at 28% in assay [1] and 100% in assay [2].
For `Cc1cc(S(=O)(=O)N2CCCCC2CCC(=O)N2CCC(Cc3ccccc3)(N3CCN(C)CC3)CC2)c(C)cc1Cl` (stereo not drawn) [Compound 130, 1-(4-benzyl-4-(4-methylpiperazin-1-yl)piperidin-1-yl)-3-(1-(4-chloro-2,5-dimethylphenylsulfonyl)piperidin-2-yl)propan-1-one] the same measures were 49% and 102%.
As to `COc1cc(C)c(S(=O)(=O)N(C)CCOCC(=O)NC2CCC(c3ccccc3)(N3CCCCC3)CC2)c(C)c1C` (stereo not drawn) [Compound 28, 2-(2-(4-methoxy-N,2,3,6-tetramethylphenylsulfonamido)ethoxy)-N-(4-phenyl-4-(piperidin-1-yl)cyclohexyl)acetamide], the inhibition at 10 µM in assay [1] was determined as 48%; in assay [2], 60%.
On to `COc1cc(C)c(S(=O)(=O)N2CCCC(OCC(=O)NC3CCC(c4ccccc4)(N4CCCC4)CC3)C2)c(C)c1` (stereo not drawn) [Compound 176, 2-(1-(4-methoxy-2,6-dimethylphenylsulfonyl)piperidin-3-yloxy)-N-(4-phenyl-4-(pyrrolidin-1-yl)cyclohexyl)acetamide], for which the inhibition at 10 µM in assay [1] worked out at 77%; in assay [2], 89%.
For `Cc1cccc(Cl)c1S(=O)(=O)N1c2ccccc2OCC1COCC(=O)N1CCC(c2cccc(F)c2)(N2CCN(C)CC2)CC1` (stereo not drawn) [Compound 222, 2-((4-(2-Chloro-6-methylphenylsulfonyl)-3,4-dihydro-2H-benzo[b][1,4]oxazin-3-yl)methoxy)-1-(4-(3-fluorophenyl)-4-(4-methylpiperazin-1-yl)piperidin-1-yl)ethanone], the inhibition at 10 µM in assay [1] and in assay [2] was 97% each time.
As for `COc1cc(C)c(S(=O)(=O)N2CCCCC2COCC(=O)N(C)CCC2CCC(CCc3ccccc3)(N3CCCC3)CC2)c(C)c1` (stereo not drawn) [Compound 46, 2-((1-(4-methoxy-2,6-dimethylphenylsulfonyl)piperidin-2-yl)methoxy)-N-methyl-N-(2-(4-phenethyl-4-(pyrrolidin-1-yl)cyclohexyl)ethyl)acetamide], the inhibition at 10 µM in assay [1] came to 100%; in assay [2], 104%.
The matching figures for `COc1cc(C)c(S(=O)(=O)N2CCCC2COCC(=O)NC2CCC(c3ccccc3)(N3CCOCC3)CC2)c(C)c1` (stereo not drawn) [Compound 160, 2-((1-(4-methoxy-2,6-dimethylphenylsulfonyl)pyrrolidin-2-yl)methoxy)-N-(4-morpholino-4-phenylcyclohexyl)acetamide]: 98% and 93%.
The matching figures for `CN1CCN(C2(c3ccccc3)CCN(C(=O)CC(NS(=O)(=O)c3ccc4ccccc4c3)c3ccccc3)CC2)CC1` (stereo not drawn) [Compound 82, N-(3-(4-(4-methylpiperazin-1-yl)-4-phenylpiperidin-1-yl)-3-oxo-1-phenylpropyl)naphthalene-2-sulfonamide]: 99% and 99%.
For `COc1cc(C)c(S(=O)(=O)N(C)CCOCC(=O)N(C)CCCC2CCC(CCc3ccccc3)(N3CCCC3)CC2)c(C)c1` (stereo not drawn) [Compound 91, 2-(2-(4-methoxy-N,2,6-trimethylphenylsulfonamido)ethoxy)-N-methyl-N-(3-(4-phenethyl-4-(pyrrolidin-1-yl)cyclohexyl)propyl)acetamide], the inhibition at 10 µM in assay [1] is 97%; in assay [2], 98%.
On to `O=C(CC1c2ccccc2CCN1S(=O)(=O)c1ccc(Cl)c(Cl)c1)NC1CCC(Cc2ccccc2)(N2CCCCCC2)CC1` (stereo not drawn) [Compound 16, N-(4-(azepan-1-yl)-4-benzylcyclohexyl)-2-(2-(3,4-dichlorophenylsulfonyl)-1,2,3,4-tetrahydroisoquinolin-1-yl)acetamide], for which the inhibition at 10 µM in assay [1] amounted to 80%; in assay [2], 91%.
Turning to `Cc1cc(S(=O)(=O)N2CCCCC2CCC(=O)N(C)CC2CCC(Cc3ccccc3)(N3CCCC3)CC2)c(C)cc1Cl` (stereo not drawn) [Compound 129, N-((4-benzyl-4-(pyrrolidin-1-yl)cyclohexyl)methyl)-3-(1-(4-chloro-2,5-dimethylphenylsulfonyl)piperidin-2-yl)-N-methylpropanamide], the inhibition at 10 µM came to 52% in assay [1] and 104% in assay [2].
Take `CN(CCC1CCC(Cc2ccccc2)(N2CCCC2)CC1)C(=O)CC1CCCCN1S(=O)(=O)c1cccc(C(F)(F)F)c1` (stereo not drawn) [Compound 121, N-(2-(4-benzyl-4-(pyrrolidin-1-yl)cyclohexyl)ethyl)-N-methyl-2-(1-(3-(trifluoromethyl)phenylsulfonyl)piperidin-2-yl)acetamide]: the inhibition at 10 µM in assay [1] stood at 66%; in assay [2], 102%.
In the case of `O=C(COCC1CCCCN1S(=O)(=O)c1c(Cl)cc(Cl)cc1Cl)NC1CCC(Cc2ccccc2)(N2CCCC2)CC1` (stereo not drawn) [Compound 163, N-(4-benzyl-4-(pyrrolidin-1-yl)cyclohexyl)-2-((1-(2,4,6-trichlorophenylsulfonyl)piperidin-2-yl)methoxy)acetamide], the inhibition at 10 µM in assay [1] stood at 93%; in assay [2] it was 84%.
